Test results published in paper PMC6749364, “Pharmacokinetics and Tissue Distribution of Alnustone in Rats after Intravenous Administration by Liquid Chromatography-Mass Spectrometry” (Molecules, 2019).

Assays:
[1] = tested on: Bel-7402 (human hepatocellular carcinoma cells); set-up: method as in earlier work; details: Bel-7402 cell line; cited from earlier work
[2] = obtained by our previous pharmacological experiment; cited from earlier work
[3] = tested on: LO-2 (human normal liver cells); set-up: method as in earlier work; details: LO-2 cell line; cited from earlier work
[4] = Tissue distribution study after intravenous administration; format: in vivo, Sprague-Dawley rats; details: rats, i.v. 5 mg/kg; for Kp at 0.5 h / Kp at 1 h / Kp at 4 h / Kp at 2 h: n = 5
Description: The rat was sacrificed quickly by decapitation on the ice. The various tissues (heart, liver, spleen, lung, kidney, brain, stomach, intestine) were harvested and rinsed with ice-cold 0.9% NaCl to remove the superficial blood. After being blotted dry with filter paper, each tissue sample was weighed on ice and physiological saline added ([…]) to homogenize. Then, a 100 μL (equivalent to 50 mg) of tissue homogenate was taken and processed using the same method as the plasma samples processing method as shown in the above steps.
The mobile phase consisted of methanol and 0.1% formic acid water using a gradient dilution at a flow rate of 0.3 mL/min. The column temperature was maintained at 30 °C. Alnustone was quantitatively determined with MRM in the positive ion mode, and nitrogen was used to assist nebulization in the ESI source. The MS parameters were set as follows: The ionspray voltage (IS) 5500 V; nebulizer gas (gas 1) 19 arbitrary units; curtain gas (CUR) 10 arbitrary units; collision cell exit potential (CXP) 7.0 V; entrance potential (EP) 10.0 V. The optimization of the MS transitions using the multiple-reaction monitoring (MRM) mode were accomplished as alnustone m/z 262.9→105.2 and IS (caffeine) m/z 195.2→138.0, respectively.
For the tissue distribution study, 20 SD rats were randomly divided into four groups (5 rats for each time point) and fasted for 12 h with free access to water prior to administration. After the rats were tail intravenously administrated of alnustone (5 mg/kg), the tissue specimens (heart, liver, spleen, lung, kidney, brain, stomach and intestine) were collected at 0.5, 1, 2, and 4 h post-dosing, respectively. The blank tissues were prepared separately using drug-free SD rats. The tissue harvesting and homogenizing method were given in Section 3.5. For the plasma and tissue homogenate sample preparation method, also see Section 3.5.

[5] = Sprague-Dawley, rat, iv, Intestine
[6] = Sprague-Dawley, rat, iv, Kidney
[7] = Sprague-Dawley, rat, iv, Spleen
[8] = Sprague-Dawley, rat, iv, Stomach

In the case of `O=C(/C=C/C=C/c1ccccc1)CCc1ccccc1` [alnustone, Alnustone], the “antitumor activity in vitro” value [1] is given as “significant antitumor activity”, the LD50 [2] is given as 200 mg/kg and the “antitumor activity in vitro” value [3] is given as “significant antitumor activity”. It also gave a Kp at 0.5 h ([4]; Sprague-Dawley, rat, iv, Brain) of 0.11 ± 0.4, a Kp at 1 h ([4]; Sprague-Dawley, rat, iv, Brain) of 0.21 ± 0.56 and a Kp at 4 h ([4]; Sprague-Dawley, rat, iv, Brain, 4 h) of 1.03 ± 0.08. The Kp at 0.5 h ([4]; Sprague-Dawley, rat, iv, Heart) was 0.36 ± 0.06, the Kp at 1 h ([4]; Sprague-Dawley, rat, iv, Heart) was 0.42 ± 0.1 and the Kp at 2 h ([4]; Sprague-Dawley, rat, iv, Heart) was 0.59 ± 0.17. It also gave a Kp at 4 h ([4]; Sprague-Dawley, rat, iv, Heart, 4 h) of 1.78 ± 0.24, a Kp at 0.5 h [4, 5] of 0.39 ± 0.07 and a Kp at 1 h [4, 5] of 0.66 ± 0.12. It also gave a Kp at 2 h [4, 5] of 0.88 ± 0.19, a Kp at 4 h ([4]; Sprague-Dawley, rat, iv, Intestine, 4 h) of 1.18 ± 0.2 and a Kp at 0.5 h [4, 6] of 0.58 ± 0.07. It also gave a Kp at 1 h [4, 6] of 0.74 ± 0.11, a Kp at 2 h [4, 6] of 1.49 ± 0.27 and a Kp at 4 h ([4]; Sprague-Dawley, rat, iv, Kidney, 4 h) of 1.86 ± 0.18. The Kp at 0.5 h ([4]; Sprague-Dawley, rat, iv, Liver) was 1.28 ± 0.34, the Kp at 1 h ([4]; Sprague-Dawley, rat, iv, Liver) was 1.31 ± 0.18 and the Kp at 2 h ([4]; Sprague-Dawley, rat, iv, Liver) was 1.28 ± 0.29. It also gave a Kp at 4 h ([4]; Sprague-Dawley, rat, iv, Liver, 4 h) of 5.48 ± 0.66, a Kp at 0.5 h ([4]; Sprague-Dawley, rat, iv, Lung) of 1.3 ± 0.09 and a Kp at 1 h ([4]; Sprague-Dawley, rat, iv, Lung) of 3.39 ± 0.39. The Kp at 2 h ([4]; Sprague-Dawley, rat, iv, Lung) was 4.55 ± 0.61, the Kp at 4 h ([4]; Sprague-Dawley, rat, iv, Lung, 4 h) was 15.8 ± 1.33 and the Kp at 0.5 h [4, 7] was 0.46 ± 0.06. For the same compound, the Kp at 1 h [4, 7] was 1.24 ± 0.13, the Kp at 2 h [4, 7] was 0.7 ± 0.06 and the Kp at 4 h ([4]; Sprague-Dawley, rat, iv, Spleen, 4 h) was 1.54 ± 0.32. For the same compound, the Kp at 0.5 h [4, 8] was 0.64 ± 0.14, the Kp at 1 h [4, 8] was 0.52 ± 0.11 and the Kp at 2 h [4, 8] was 0.7 ± 0.03. For the same compound, the Kp at 4 h ([4]; Sprague-Dawley, rat, iv, Stomach, 4 h) was 3.66 ± 0.27, the concentration at 4 h ([4]; Sprague-Dawley, rat, iv, brain, 4 h) was 567 ng/mL and the “highest mean concentration in tissue” value ([4]; brain) was 344.27 ng/g. The “time of maximum tissue concentration” value ([4]; brain) was 1 h, the “highest mean concentration in tissue” value ([4]; heart) was 900.97 ng/g and the “highest mean concentration in tissue” value ([4]; intestine) was 1099.14 ng/g. For the same compound, the “time of maximum tissue concentration” value ([4]; intestine) was 1 h, the “highest mean concentration in tissue” value ([4]; kidney) was 1450.43 ng/g and the “highest mean concentration in tissue” value ([4]; liver) was 3199.49 ng/g. For the same compound, the “highest mean concentration in tissue” value ([4]; lung) was 5685.40 ng/g, the “time of maximum tissue concentration” value ([4]; lung) was 1 h and the blood-brain barrier penetration [4] was “could enter the brain through the blood-brain barrier”. For the same compound, the “highest mean concentration in tissue” value ([4]; spleen) was 2077.14 ng/g, the “time of maximum tissue concentration” value ([4]; spleen) was 1 h and the “highest mean concentration in tissue” value ([4]; stomach) was 1588.90 ng/g.
